Source: patent publication US20230210888A1, “PHOTOTHERANOSTIC NANOAGENTS WITH EXCELLENT ATHEROSCLEROTIC PLAQUE-TARGETING AND PLAQUE-PENETRATING PROPERTIES, AND USE THEREOF” (Korea University Research and Business Foundation, priority 2021, published 2023)

Experiments:
[1] = Skin phototoxicity after intravenous injection and 670 nm laser; format: in vivo, Balb/c mice; settings: 2 mg/kg (equiv. of Ce6) iv, 670 nm 50 mW/cm2 5 min 1 h after injection; 2nd and 3rd days
Method: One hour after injection, a near-infrared (670 nm) laser (50 mW/cm^2) was irradiated for 5 minutes.

[2] = Singlet oxygen generation (SOSG fluorescence) under 670 nm laser; format: physicochemical; settings: PBS with 1% Tween 20, 5 μM based on Ce6, 670 nm 50 mW/cm2, 0-120 s
Method: All three solutions contained 1 μM SOSG. The fluorescence intensity of SOSG (Ex(excitation)/Em(emission): 504 nm/525 nm) was measured by irradiating a laser (670 nm, 50 mW/cm^2) every 30 seconds from 0 to 120 seconds.

Substance: (17S,18S)-18-(2-carboxyethyl)-20-(carboxymethyl)-12-ethenyl-7-ethyl-3,8,13,17-tetramethyl-17,18,22,23-tetrahydroporphyrin-2-carboxylic acid [Ce6]
- skin phototoxicity (erythema) [1]: erythema occurred
- SOSG fluorescence intensity (singlet oxygen generation) [2]: tendency to increase similarly to each other
